Assays:
Format in all cases: in vivo
[1] = test system: Housefly [Musca domestica]; assay: Housefly insecticidal test (HF); settings: per 25 female houseflies, 48 hours
[2] = test system: Aster Leafhopper [Macrosteles fascifrens (Stal)]; assay: Aster leafhopper test (LH); settings: adults/nymphs, 48 hours, percent in solution
[3] = test system: Tobacco Budworm [Heliothis virescens (Fabricius)] eggs; assay: Tobacco budworm egg test (TBW-E); settings: percent in solution
[4] = test system: Maize weevil [Sitophilus Zeamais (Motschulsky)]; assay: Maize weevil test (MW); settings: adult weevils, treated corn seeds, 48 hours, percent in solution
How it was run: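 Adult weevils (10) were placed with four corn seeds that had been dipped 2-3 s in compound dissolved in 50:50 acetone:water, then dried, and held at about 25° C. Mortality was scored at 48 h. LC50 was taken from dosage-mortality curves and expressed as percent compound in solution, from a 0.01% top concentration.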

[5] = test system: Cabbage Looper [Trichoplusia ni (Hubner)]; assay: Cabbage looper test (CL); settings: second-instar larvae, 3-5 days, percent in solution

In the case of `CC(C)C(=Nc1cccc(C(F)(F)F)c1)OCc1cccc(Oc2ccc(Cl)cn2)c1` [Compound 518], the “LC50 HF” value [1] is reported as > 100 µg, the “LC50 LH” value [2] is reported as > 0.05% and the “LC50 TBW E” value [3] is reported as > 0.1%. For the same molecule, the “LC50 MW” value [4] was > 0.01% and the “LC50 CL” value [5] was 0.00075%.

In the case of `CC(C)C(=Nc1ccc(F)c(Cl)c1)OCc1cc(Oc2ccc(F)cc2)ccn1` [Compound 529], the “LC50 HF” value [1] is reported as 27.7 µg, the “LC50 LH” value [2] is reported as > 0.05% and the “LC50 TBW E” value [3] is reported as > 0.1%. The “LC50 MW” value [4] was > 0.01% and the “LC50 CL” value [5] was > 0.0025%.

With `CC(C)C(=Nc1cccc(Br)c1)OCc1cccc(Oc2ccccc2)c1` [Compound 128] the “LC50 HF” value [1] was 4.5 µg, the “LC50 LH” value [2] was 0.003% and the “LC50 TBW E” value [3] was 0.037%. For the same molecule, the “LC50 MW” value [4] was > 0.01% and the “LC50 CL” value [5] was 0.005%.

For `CC(C)C(=Nc1cccc(C(F)(F)F)c1)OCc1ccnc(Oc2ccc(Cl)cc2)c1` [Compound 517], the “LC50 HF” value [1] was 80 µg, the “LC50 LH” value [2] was > 0.05% and the “LC50 TBW E” value [3] was 0.04%. For the same molecule, the “LC50 MW” value [4] was > 0.01% and the “LC50 CL” value [5] was 0.0008%.

With `Cc1ccc(N=C(OCc2ccc(F)c(Oc3ccccc3)c2)C(C)C)cc1F` [Compound 354] the “LC50 HF” value [1] was < 100 µg, the “LC50 LH” value [2] was < 0.05% and the “LC50 TBW E” value [3] was 0.018%. The “LC50 MW” value [4] was 0.0068% and the “LC50 CL” value [5] was > 0.1%.

`CSc1ccc(N=C(OCc2ccc(F)c(Oc3ccccc3)c2)C(C)C)cc1` [Compound 353] was tested, and the “LC50 HF” value [1] was < 100 µg, the “LC50 LH” value [2] was > 0.05% and the “LC50 TBW E” value [3] was > 0.1%. The “LC50 MW” value [4] was > 0.01% and the “LC50 CL” value [5] was > 0.1%.

For `CC(C)C(=Nc1ccc([N+](=O)[O-])cc1)OCc1coc(Cc2ccccc2)c1` [Compound 539], the “LC50 HF” value [1] was 22 µg, the “LC50 LH” value [2] was > 0.05% and the “LC50 TBW E” value [3] was > 0.1%. For the same molecule, the “LC50 MW” value [4] was > 0.01% and the “LC50 CL” value [5] was > 0.1%.

For `CC(C)C(=Nc1ccc(Br)c(C(F)(F)F)c1)OCc1ccc(F)c(Oc2ccc(F)cc2)c1` [Compound 364], the “LC50 HF” value [1] was < 100 µg, the “LC50 LH” value [2] was < 0.05% and the “LC50 TBW E” value [3] was 0.025%. For the same molecule, the “LC50 MW” value [4] was > 0.01% and the “LC50 CL” value [5] was 0.00045%.

With `Cc1ccc(N=C(OCc2ccc(F)c(Oc3ccc(F)cc3)c2)C(C)C)cc1F` [Compound 355] the “LC50 HF” value [1] was < 100 µg, the “LC50 LH” value [2] was < 0.05% and the “LC50 TBW E” value [3] was > 0.1%. For the same molecule, the “LC50 MW” value [4] was > 0.01% and the “LC50 CL” value [5] was > 0.1%.

With `CC(C)C(=Nc1ccc(OC(F)(F)F)cc1)OCc1cccc(Cc2ccccc2)c1` [Compound 538] the “LC50 HF” value [1] was 75 µg, the “LC50 LH” value [2] was > 0.05% and the “LC50 MW” value [4] was > 0.01%. For the same molecule, the “LC50 CL” value [5] was > 0.1%.

For `Clc1ccc(N=C(OCc2cccc(Oc3ccccc3)c2)C(Cl)Cl)c2ccccc12` [Compound 98], the “LC50 HF” value [1] was > 100 µg, the “LC50 LH” value [2] was > 0.05% and the “LC50 TBW E” value [3] was 0.1%. The “LC50 CL” value [5] was 0.016%.

In the case of `Cc1c(Cl)cc(N=C(OCc2cccc(Oc3ccccc3)c2)C(C)C)cc1Cl` [Compound 101], the “LC50 HF” value [1] is reported as 81 µg, the “LC50 LH” value [2] is reported as 0.0008% and the “LC50 TBW E” value [3] is reported as > 0.1%. The “LC50 CL” value [5] was 0.0045%.

In the case of `CC(C)C(=Nc1c(F)cc(F)cc1Br)OCc1cccc(Oc2ccccc2)c1` [Compound 129], the “LC50 HF” value [1] is reported as > 100 µg, the “LC50 LH” value [2] is reported as 0.01% and the “LC50 TBW E” value [3] is reported as > 0.1%. For the same molecule, the “LC50 CL” value [5] was 0.005%.

With `CCOC(=O)c1cc(N=C(OCc2cccc(Oc3ccccc3)c2)C(C)C)ccc1Cl` [Compound 102] the “LC50 HF” value [1] was > 100 µg, the “LC50 LH” value [2] was > 0.05% and the “LC50 TBW E” value [3] was > 0.1%. The “LC50 CL” value [5] was 0.075%.

In the case of `CC(C)C(=Nc1ccc2c(c1)OC(C)(C)O2)OCc1ccc(F)c(Oc2ccccc2)c1` [Compound 242], the “LC50 HF” value [1] is reported as < 100 µg, the “LC50 LH” value [2] is reported as > 0.05% and the “LC50 TBW E” value [3] is reported as > 0.1%. The “LC50 CL” value [5] was 0.00025%.

For `CC(C)C(=Nc1cc(Cl)c(Cl)c(Cl)c1)OCc1cccc(Oc2ccccc2)c1` [Compound 20], the “LC50 HF” value [1] was 64 µg, the “LC50 LH” value [2] was 0.003% and the “LC50 TBW E” value [3] was < 0.1%. The “LC50 CL” value [5] was 0.0025%.

`CCc1cccc(N=C(OCc2cccc(Oc3ccccc3)c2)C(C)C)c1` [Compound 154] was tested, and the “LC50 HF” value [1] was 25 µg, the “LC50 LH” value [2] was > 0.05% and the “LC50 TBW E” value [3] was 0.1%. For the same molecule, the “LC50 CL” value [5] was 0.004%.
